Drawing on ChEMBL document CHEMBL3045595, “Synthesis and characterization of new types of 2-(6-methoxy-2-naphthyl)propionamide derivatives as potential antibacterial and antifungal agents” (2013), this text covers zone of inhibition and MIC for five compounds.

Format in all cases: functional
The test system of assay [1] is Escherichia coli. Put plainly: Antibacterial activity against Escherichia coli RCMB 000103 at 25 ug/ml after 24 hrs by agar well diffusion method. Particulars: RCMB 000103, 24 h, read-out: DIZ. On the technique in general: In agar diffusion tests the substance spreads into inoculated agar from a disc or well.
The subject of assay [2] is Pseudomonas aeruginosa. Put plainly: Antibacterial activity against Pseudomonas aeruginosa RCMB 010043 at 25 ug/ml after 24 hrs by agar well diffusion method. The conditions noted are these: RCMB 010043, 24 h, read-out: DIZ.
The subject of assay [3] is Bacillus subtilis. Put plainly: Antibacterial activity against Bacillus subtilis RCMB 010063 at 25 ug/ml after 24 hrs by agar well diffusion method. Particulars: RCMB 010063, 24 h, read-out: DIZ.
The test system of assay [4] is Staphylococcus aureus. Put plainly: Antibacterial activity against Staphylococcus aureus RCMB 010027 at 25 ug/ml after 24 hrs by agar well diffusion method. Particulars: RCMB 010027, 24 h, read-out: DIZ.
Assay [5] relates to Candida albicans. Put plainly: Antifungal activity against Candida albicans RCMB 05035.
Assay [6] deals with Aspergillus ochraceus. Put plainly: Antifungal activity against Aspergillus ochraceus RCMB 02593.
The subject of assay [7] is Candida albicans. Put plainly: Antifungal activity against Candida albicans RCMB 05035 at 25 ug/ml after 72 hrs by agar well diffusion method. Particulars: RCMB 05035, 72 h, read-out: DIZ.
For assay [8], the system named is Aspergillus ochraceus. Put plainly: Antifungal activity against Aspergillus ochraceus RCMB 02593 at 25 ug/ml after 72 hrs by agar well diffusion method. The conditions noted are these: RCMB 02593, 72 h, read-out: DIZ.
Assay [9] deals with Pseudomonas aeruginosa. Put plainly: Antibacterial activity against Pseudomonas aeruginosa RCMB 010043 at 1 mg/ml after 24 hrs by agar well diffusion method. The conditions noted are these: RCMB 010043, 24 h, read-out: DIZ.
In assay [10] the test system is Bacillus subtilis. Put plainly: Antibacterial activity against Bacillus subtilis RCMB 010063 at 1 mg/ml after 24 hrs by agar well diffusion method. The conditions noted are these: RCMB 010063, 24 h, read-out: DIZ.
Assay [11] has as its system Staphylococcus aureus. Put plainly: Antibacterial activity against Staphylococcus aureus RCMB 010027 at 1 mg/ml after 24 hrs by agar well diffusion method. The conditions noted are these: RCMB 010027, 24 h, read-out: DIZ.
Assay [12] concerns Pseudomonas aeruginosa. Put plainly: Antibacterial activity against Pseudomonas aeruginosa RCMB 010043 after 24 hrs by twofold serial dilution method. Particulars: RCMB 010043, 24 h.
The subject of assay [13] is Escherichia coli. Put plainly: Antibacterial activity against Escherichia coli RCMB 000103 after 24 hrs by twofold serial dilution method. Particulars: RCMB 000103, 24 h.
For assay [14], the system named is Bacillus subtilis. Put plainly: Antibacterial activity against Bacillus subtilis RCMB 010063 after 24 hrs by twofold serial dilution method. The conditions noted are these: RCMB 010063, 24 h.
In assay [15] the test system is Staphylococcus aureus. Put plainly: Antibacterial activity against Staphylococcus aureus RCMB 010027 after 24 hrs by twofold serial dilution method. Particulars: RCMB 010027, 24 h.
In assay [16] the test system is Candida albicans. Put plainly: Antifungal activity against Candida albicans RCMB 05035 at 1 mg/ml after 72 hrs by agar well diffusion method. Particulars: RCMB 05035, 72 h, read-out: DIZ.
For assay [17], the system named is Aspergillus ochraceus. Put plainly: Antifungal activity against Aspergillus ochraceus RCMB 02593 at 1 mg/ml after 72 hrs by agar well diffusion method. The conditions noted are these: RCMB 02593, 72 h, read-out: DIZ.
For assay [18], the system named is Escherichia coli. Put plainly: Antibacterial activity against Escherichia coli RCMB 000103 at 1 mg/ml after 24 hrs by agar well diffusion method. Particulars: RCMB 000103, 24 h, read-out: DIZ.

The structures appear in SMILES notation. In brackets after ≈: the same amount, converted by molar mass.

Take `CC1(C)S[C@@H]2[C@H](NC(=O)[C@H](N)c3ccccc3)C(=O)N2[C@H]1C(=O)O` [AMPICILLIN]: the zone of inhibition at 25 µg/mL with Escherichia coli [1] stood at 21.4 mm; in the assay with Pseudomonas aeruginosa [2] it was 17.3 mm; in the assay on Bacillus subtilis [3], 34.6 mm; in the assay with Staphylococcus aureus [4] it was 28.9 mm.
As for `OC(Cn1cncn1)(Cn1cncn1)c1ccc(F)cc1F` [FLUCONAZOLE], the MIC against Candida albicans [5] was determined as 0.24 µg/mL (≈ 0.784 µM); against Aspergillus ochraceus [6], 1.95 µg/mL (≈ 6.37 µM). The zone of inhibition at 25 µg/mL is 26.4 mm in the assay on Candida albicans [7] and 21.9 mm in the assay with Aspergillus ochraceus [8].
Take `COc1ccc2cc(C(C)C(=O)Nc3ccc4c(c3)Sc3ccccc3N4)ccc2c1` (centres undefined): the zone of inhibition at 1000 µg/mL with Pseudomonas aeruginosa [9] was 13.6 mm; in the assay with Bacillus subtilis [10] it was 24.6 mm; in the assay with Staphylococcus aureus [11], 21.4 mm; in the assay with Candida albicans [16], 16.9 mm; in the assay with Aspergillus ochraceus [17], 17.6 mm; in the assay on Escherichia coli [18], 20.2 mm. For the same compound, the MIC against Candida albicans [5] is 31.2 µg/mL (≈ 73.3 µM); in the assay on Aspergillus ochraceus [6], 15.6 µg/mL (≈ 36.6 µM); in the assay on Pseudomonas aeruginosa [12] it was 7.81 µg/mL (≈ 18.3 µM); against Escherichia coli [13], 7.81 µg/mL (≈ 18.3 µM); in the assay on Bacillus subtilis [14], 0.97 µg/mL (≈ 2.27 µM); against Staphylococcus aureus [15], 3.9 µg/mL (≈ 9.14 µM).
For the compound `COc1ccc2cc(C(C)C(=O)Nc3ccc(C(=O)O)cc3)ccc2c1` (centres undefined), the zone of inhibition at 1000 µg/mL was determined as 15.9 mm in the assay with Pseudomonas aeruginosa [9]; 23.7 mm in the assay on Bacillus subtilis [10]; 21.6 mm in the assay with Staphylococcus aureus [11]; 15.6 mm with Candida albicans [16]; 19.4 mm in the assay on Aspergillus ochraceus [17]; 20.3 mm in the assay on Escherichia coli [18]. Besides, the MIC was 62.5 µg/mL (≈ 179 µM) against Candida albicans [5]; 7.81 µg/mL (≈ 22.4 µM) in the assay with Aspergillus ochraceus [6]; 15.6 µg/mL (≈ 44.7 µM) against Pseudomonas aeruginosa [12]; 1.95 µg/mL (≈ 5.58 µM) in the assay with Escherichia coli [13]; 3.9 µg/mL (≈ 11.2 µM) with Bacillus subtilis [14]; 0.24 µg/mL (≈ 0.687 µM) against Staphylococcus aureus [15].
Consider `COc1ccc2cc(C(C)C(=O)Nc3ccc(S(=O)(=O)Nc4cc(C)on4)cc3)ccc2c1` (centres undefined), for which the zone of inhibition at 1000 µg/mL stood at 13 mm with Pseudomonas aeruginosa [9]; 21.7 mm with Bacillus subtilis [10]; 20.6 mm with Staphylococcus aureus [11]; 16.5 mm in the assay with Candida albicans [16]; 17.3 mm in the assay on Aspergillus ochraceus [17]; 19.9 mm in the assay with Escherichia coli [18]. The MIC in the assay with Candida albicans [5] is 250 µg/mL (≈ 537 µM); in the assay on Aspergillus ochraceus [6] it was 7.81 µg/mL (≈ 16.8 µM); against Pseudomonas aeruginosa [12], 1.95 µg/mL (≈ 4.19 µM); against Escherichia coli [13], 3.9 µg/mL (≈ 8.38 µM); in the assay on Bacillus subtilis [14], 62.5 µg/mL (≈ 134 µM); against Staphylococcus aureus [15] it was 31.2 µg/mL (≈ 67.1 µM).

Usually MIC stands for the lowest concentration that inhibits growth of the organism. Low values mean a more susceptible organism, high ones a less susceptible organism.
